Publication PMC12069340 (Frontiers in Cellular and Infection Microbiology, 2025)
Structures can show the parent of a compound that is named as a salt. Where two headings read alike, the source gives them in different places.

Assays:
[1] = in vitro
[2] = tested on: A/PuertoRico/8/1934 (H1N1) virus; assay: microbe, parasite or virus in culture; format: cell-based, influenza A virus
[3] = tested on: U937 cells; details: 20 µM
[4] = tested on: U937 cells
[5] = tested on: A/PuertoRico/8/1934 (H1N1) virus; assay: microbe, parasite or virus in culture; format: cell-based, influenza A virus; remark: listed apart in the source
[6] = Validation screen: cytotoxicity without viral infection; details: human
[7] = in vitro; details: human, Relative Viability (%)
[8] = Influenza A virus, H1N1, U-937, 48 h; read-out: NA Inhibition (%)
[9] = Influenza A virus, H1N1, U-937, 48 h
[10] = Influenza A virus, H1N1, U-937, 48 h, read-out: NA Inhibition (%)

Compound	NA Inhibition (%) ([2]; 20 µM)	Relative Viability (%) [3]	viability at 20 µM [7]	also measured
C=C(CC)C(=O)c1ccc(OCC(=O)O)c(Cl)c1Cl [ethacrynic acid, Ethacrynic acid]				CC50 [1]: 240 µM
Succinylcholine Chloride Dihydrate	13.3%	99.6%		
Varenicline Tartrate	6.8%	108.9%		
CCCN[C@H]1CCc2nc(N)sc2C1 [Pramipexole]	-25.0			Relative Viability (%) ([3]; human): 91.8
Tetrahydrozoline HCl	9.5%	96.0%		
Meclizine 2HCl	74.9%	109.3%		CC50 [4]: 79.5 µM; IC50 ([5]; read-out: IC50): 5.3 µM
Cyclizine 2HCl	-4.6%	90.9%		
CN(C)[C@@H](CCOc1cccc2ccccc12)c1ccccc1 [Dapoxetine HCl]			110%	inhibition at 20 µM [2, 8]: 63.4%; CC50 at 48 h ([6]; uninfected U937 cells): 76.1 µM; IC50 [5, 9]: 6.65 µM
Cc1c(Cl)c(OCC(=O)N2CCN(C)CC2)nc2sc(C(=O)NC3CC3)c(N)c12 [LY2119620]	19.0%	99.3%		
OC(CNCC(O)C1CCc2cc(F)ccc2O1)C1CCc2cc(F)ccc2O1 (stereo not drawn) [Nebivolol]			89.4%	inhibition at 20 µM [2, 8]: 66.4%; CC50 at 48 h ([6]; uninfected U937 cells): 33.3 µM; IC50 [5, 9]: 9.8 µM
CN1CCc2cc3c(cc2[C@H]1[C@@H]1OC(=O)c2c1ccc1c2OCO1)OCO3 [(+)-Bicuculline]	-11.3%	98.1%		
CN1[C@@H]2CC[C@H]1C[C@@H](OC(c1ccccc1)c1ccccc1)C2 [Benztropine mesylate]			108%	inhibition at 20 µM [2, 10]: 57.8%; CC50 at 48 h ([6]; uninfected U937 cells): > 80 µM
OCc1cc(C(O)CNCCCCCCOCCCCc2ccccc2)ccc1O (stereo not drawn) [Salmeterol Xinafoate]			90.4%	inhibition at 20 µM [2, 10]: 69.9%; CC50 at 48 h ([6]; uninfected U937 cells): 40.2 µM; IC50 [5, 9]: 4.4 µM
Salbutamol Sulfate	6.4%	114.7%		
Naftopidil DiHCl	6.2%	88.1%		
(+)-Matrine	9.9%	109.9%		
Hydroxyzine 2HCl	18.4%	101.7%		
Cc1ccsc1C(=CCCN1CCC[C@@H](C(=O)O)C1)c1sccc1C [Tiagabine hydrochloride]	19.9%			Relative Viability (%) ([3]; human): 91.7%
Atipamezole hydrochloride	58.1%	119.4%		

Compound	NA Inhibition (%) ([2]; 20 µM)	Relative Viability (%) [3]	viability at 20 µM [7]	also measured
Itopride hydrochloride	9.1%	109.7%		
Ivabradine HCl	-0.1%	104.6%		
CCCCCCNC(=O)Nc1ccc(S(=O)(=O)Nc2ccc(CCNC[C@H](O)COc3ccc(O)cc3)cc2)cc1 [L755507]	-1.1%	100.1%		
COc1cc([C@@H]2c3cc4c(cc3[C@@H](O[C@@H]3O[C@@H]5CO[C@@H](C)O[C@H]5[C@H](O)[C@H]3O)[C@H]3COC(=O)[C@H]23)OCO4)cc(OC)c1O [etoposide]				CC50 [1]: 260 µM
Almotriptan Malate	21.0%	114.2%		
CN1CCCC(n2nc(Cc3ccc(Cl)cc3)c3ccccc3c2=O)CC1 (stereo not drawn) [Azelastine HCl]			99.4%	inhibition at 20 µM [2, 8]: 55.3%; CC50 at 48 h ([6]; uninfected U937 cells): 55.7 µM; IC50 [5, 9]: 8.4 µM
Galanthamine HBr	-13.2%	108.7%		
Lorcaserin HCl	17.8%	104.4%		
Propranolol HCl	65.3%			CC50 [4]: > 80 µM
Gabapentin HCl	-16.1%	111.9%		
Naloxone HCl Dihydrate	27.3%	113.1%		
Promethazine HCl	64.8%	105.7%		CC50 [4]: > 80 µM; IC50 ([5]; read-out: IC50): 9.3 µM
CN(C)CCOC(c1ccc(Cl)cc1)c1ccccn1.O=C(O)/C=C\C(=O)O (stereo not drawn) [ArbinoxaMine Maleate]	29.8%	94.3%		
Bambuterol HCl	-2.9%	102.5%		
Cc1ccc(N(CC2=NCCN2)c2cccc(O)c2)cc1 [Phentolamine Mesylate]			117%	inhibition at 20 µM [2, 10]: 72.3%; CC50 at 48 h ([6]; uninfected U937 cells): > 80 µM; IC50 [5, 9]: 1 µM
Paroxetine HCl	51.2%	85.1%		
Cc1cccc(C(C)c2cnc[nH]2)c1C (stereo not drawn) [Medetomidine HCl]			103%	inhibition at 20 µM [2, 10]: 59.7%; CC50 at 48 h [6]: > 80 µM; IC50 [5, 9]: 12.5 µM
PRX-08066 Maleic acid	20.2%	92.0%		
COc1ccc(C[C@@H](C)NC[C@H](O)c2ccc(O)c(NC=O)c2)cc1.COc1ccc(C[C@@H](C)NC[C@H](O)c2ccc(O)c(NC=O)c2)cc1.O=C(O)/C=C/C(=O)O [Formoterol Hemifumarate]	-23.1%	121.9%		

Compound	NA Inhibition (%) ([2]; 20 µM)	Relative Viability (%) [3]	viability at 20 µM [7]	also measured
Vortioxetine (Lu AA21004) HBr	23.8%	95.3%		
COc1cc2nc(N3CCN(C(=O)C4CCCO4)CC3)nc(N)c2cc1OC (stereo not drawn) [Terazosin]			87.8%	inhibition at 20 µM [2, 8]: -47.2%
Ondansetron HCl	4.7%	98.5%		
NC[C@H](CC(=O)O)c1ccc(Cl)cc1 [(R)-baclofen]			112%	inhibition at 20 µM [2, 8]: 46.4%
C[C@H](Cc1cc2c(c(C(N)=O)c1)N(CCCO)CC2)NCCOc1ccccc1OCC(F)(F)F [Silodosin]			115%	inhibition at 20 µM [2, 10]: -41.7%
CCN(C)C(=O)Oc1cccc([C@H](C)N(C)C)c1 [Rivastigmine Tartrate]			116%	inhibition at 20 µM [2, 8]: -0.2%
CN(C)C(=O)C(CCN1CCC(O)(c2ccc(Cl)cc2)CC1)(c1ccccc1)c1ccccc1 [Loperamide HCl]			116%	inhibition at 20 µM [2, 10]: 23.2%
CN(C)CCc1c[nH]c2ccc(Cn3cncn3)cc12 [Rizatriptan Benzoate]			106%	inhibition at 20 µM [2, 8]: 7.7%
CN(C)CC/C=C1/c2ccccc2COc2ccc(CC(=O)O)cc21 [Olopatadine HCl]			122%	inhibition at 20 µM [2, 8]: -11.6%
MetoclopraMide HCl	-36.9%	126.3%		
OC(CCCN1CCCCC1)(c1ccccc1)c1ccccc1 [Diphenidol HCl]			125%	inhibition at 20 µM [2, 8]: 32.3%
CN[C@H](CC(=O)O)C(=O)O [NMDA (N-Methyl-D-aspartic acid), N-Methyl-D-aspartic acid]			113%	inhibition at 20 µM [2, 10]: -15.5%
COc1cc2c(cc1OC)[C@@H]1Cc3ccc(OC)c(OC)c3CN1CC2 [Rotundine]			112%	inhibition at 20 µM [2, 8]: 17.4%
CCCN1C[C@H](CSC)C[C@@H]2c3cccc4[nH]cc(c34)C[C@H]21 [Pergolide mesylate]			118%	inhibition at 20 µM [2, 8]: 67.8%; CC50 at 48 h ([6]; uninfected U937 cells): > 80 µM; IC50 [5, 9]: 7.1 µM
CCCC(=O)Nc1ccc(OCC(O)CNC(C)C)c(C(C)=O)c1 (stereo not drawn) [Acebutolol HCl]			106%	inhibition at 20 µM [2, 10]: -13.9%
CN1CCC(=C2c3ccccc3CC(=O)c3sccc32)CC1 [Ketotifen Fumarate]			108%	inhibition at 20 µM [2, 8]: -4.7%
Synephrine HCl	10.3%	99.1%		
Urapidil HCl	5.3%	103.3%		
